{
  "source": "patent US8426364B2",
  "about": "“Method of preventing progression of hypertension-induced heart failure with PKC peptides” (The Board of Trustees of the Leland Stanford Junior …, priority 0011, dated 2013)",
  "key": {"Dahl salt-sensitive rats [1]": {"system": "Dahl salt-sensitive rats", "assay": "Hypertension-induced heart failure rat model (survival, echocardiography, blood pressure, body weight)", "assay_type": "in vivo", "conditions": "for Systolic Wall Stress: calculated (SBP × ESD)/[4 × PWT × (1 + PWT/ESD)]; for Systolic Wall Stress / EDD (LV end-diastolic diameter) / ESD (LV end-systolic diameter) / FS (LV fractional shortening) / PWT (LV posterior wall thickness): mean ± SEM; for survival: treated for six weeks, compared to TAT control peptide", "protocol": "To determine whether εPKC plays any role in the transition to heart failure and death, HS rats were treated with the selective εPKC inhibiting peptide, TAT47-57-εV1-2 (εV1-2; 2.8 μg/kg/day using a subcutaneous Alzet pump (26)) or with saline as a control (HS-control) from the age of 11 weeks (when compensatory hypertrophy is seen) to 17 weeks (when heart failure is apparent; FIG. 1A)). Another group of hypertensive rats was treated for the same period with a common clinical treatment, the angiotensin II receptor type 1 blocker (ARB, olmesartan, Olm; 3 mg/kg/day).\nAnimal protocols were approved by the Stanford University Institutional Animal Care and Use Committee. Dahl salt-sensitive rats provide a reliable animal model of hypertension-induced heart failure. When placed on 8% NaCl-containing diet from the age of 6 weeks (HS rats), the rats develop compensative left ventricular hypertrophy by the age of 11 weeks, and die from heart failure when they reach 16 to 21 weeks (21, 25). Male Dahl salt-sensitive rats were fed with an 8% NaCl-containing diet (Dahl-high-salt) or with a 0.3% NaCl low salt diet (LS-control; n=25) from the age of 6 weeks onward as previously reported (3, 21). Dahl-high-salt rats were treated between the ages of 11 and 17 weeks with the selective εPKC inhibiting peptide, TAT47-57-εV1-2 (εV1-2; n=10, 2.8 μg/kg/day), with TAT47-57-εV1-1 (εV1-1; n=14, 2.8 μg/kg/day), or with saline as a control (HS-Control; n=12), using osmotic pumps implanted subcutaneously. A fourth group was treated with angiotensin II receptor type 1 blocker, olmesartan (ARB; n=12, 3 mg/kg/day in 0.5% carboxymethylcellulose) delivered by daily gavage for the same period. A fifth group was treated from 15 to 17 weeks of age with the selective εPKC activating peptide, TAT47-57-ΨεRACK (ΨεRACK; n=17, 2.8 μg/kg/day) using an osmotic pump implanted subcutaneously (FIG. 1).\nThe osmotic pumps were replaced every two weeks, but were discontinued after the age of 17 weeks because half of the HS-control rats died by that age. Additional groups were treated with εV1-2 (using the Alzet pump) together with ARB (n=12) or with ARB alone (n=13) from 11 to 19 weeks of age (FIG. 6). Survival rate, fractional shortening and blood pressure were evaluated in these groups. Systolic blood pressure was measured by the tail-cuff method (BP-2000 Blood Pressure Analysis System, Visitech Systems, Inc), and fractional shortening was measured by transthoracic echocardiography (Vivid 7, GE). Additional control Dahl-high-salt rats were treated with TAT47-57 carrier peptide between 11 to 17 weeks or between 15 to 17 weeks, with vehicle for ARB (0.5% carboxymethylcellulose) or were left untreated and evaluated for survival rate, cardiac function and blood pressure."}, "92 genes": {"system": "92 genes", "assay": "Real-time PCR gene expression in LV tissue", "assay_type": "in vivo, rat", "conditions": "LV from 17-week-old rats; 92 genes examined", "protocol": "In another study, the effects of pharmacological inhibition or activation of εPKC and olmesartan on gene expression profile was analyzed. To address the molecular differences in the protective effects induced by εPKC inhibition and olmesartan, real-time PCR was used to monitor changes in gene expression resulting from each treatment. The effects of chronic treatment (as above) with the εPKC inhibitor (TAT47-57-εV1-2), the εPKC activator (TAT47-57-ΨεRACK) or olmesartan (ARB) in LV from 17-week-old rats on the expression of 92 genes was examined. […]\nTwo μg of total RNA extracted from the LV tissues of each […] rat (n=6 for each group) were converted to first-strand cDNA by reverse transcription using High Capacity cDNA Archive kit (Applied Biosystems). […] The fluorescence signals were normalized to the ubiquitously expressed housekeeping gene, β-actin. Fold-changes of mRNA expression of each group compared to the LS-control were determined by comparing cycle threshold values (24). Statistical analysis was assessed by 1-way factorial ANOVA with Fisher's test. […]"}, "Dahl salt-sensitive rats [2]": {"system": "Dahl salt-sensitive rats", "assay": "Histological analysis of left ventricle (Masson's trichrome, H&E)", "assay_type": "in vivo, rat", "protocol": "For morphometric analysis, left ventricle (LV) specimens from 17-week-old rats (n=4 for each group) were fixed with 10% buffered formalin and embedded in paraffin. Several sections were prepared from each specimen and stained with either hematoxylin and eosin (H&E) for assessment of inflammation and proliferation of vascular cells, or with Masson's trichrome stain to assess the area of cardiac fibrosis using a point-counting method (22, 23)."}, "Dahl salt-sensitive rats [3]": {"system": "Dahl salt-sensitive rats", "assay": "Hypertension-induced heart failure rat model (survival, echocardiography, blood pressure, body weight)", "assay_type": "in vivo", "conditions": "age of 11, 13, 15 and 17 weeks; β peptide study"}, "[4]": {"conditions": "17 weeks of age, high-salt rats, εV1-2 and Olm treated 11 to 17 weeks, ΨεR 15 to 17 weeks"}, "[5]": {"conditions": "24 weeks of age, treated 11 to 19 weeks of age"}},
  "data": [
    {"compound": "CCCc1nc(C(C)(C)O)c(C(=O)O)n1Cc1ccc(-c2ccccc2-c2nnn[nH]2)cc1", "note": "[Olm, olmesartan]", "values": [
      {"measurement": "Systolic Wall Stress", "setting": "Dahl salt-sensitive rats [1]; 17 weeks of age", "result": "50.7 ± 4.4", "unit": "g/cm^2"},
      {"measurement": "EDD (LV end-diastolic diameter)", "setting": "Dahl salt-sensitive rats [1]; [4]", "result": "7.3 ± 0.2", "unit": "mm"},
      {"measurement": "ESD (LV end-systolic diameter)", "setting": "Dahl salt-sensitive rats [1]; [4]", "result": "3.1 ± 0.2", "unit": "mm"},
      {"measurement": "FS (LV fractional shortening)", "setting": "Dahl salt-sensitive rats [1]; [4]", "result": "58.4 ± 1.6", "unit": "%"},
      {"measurement": "PWT (LV posterior wall thickness)", "setting": "Dahl salt-sensitive rats [1]; [4]", "result": "1.5 ± 0.04", "unit": "mm"},
      {"measurement": "EDD (LV end-diastolic diameter)", "setting": "Dahl salt-sensitive rats [1]; [5]", "result": "7.9 ± 0.2", "unit": "mm"},
      {"measurement": "ESD (LV end-systolic diameter)", "setting": "Dahl salt-sensitive rats [1]; [5]", "result": "4.9 ± 0.5", "unit": "mm"},
      {"measurement": "FS (LV fractional shortening)", "setting": "Dahl salt-sensitive rats [1]; [5]", "result": "38.3 ± 4.6", "unit": "%"},
      {"measurement": "PWT (LV posterior wall thickness)", "setting": "Dahl salt-sensitive rats [1]; [5]", "result": "1.5 ± 0.03", "unit": "mm"},
      {"measurement": "Systolic Wall Stress", "setting": "Dahl salt-sensitive rats [1]; 24 weeks of age, treated 11 to 19 weeks", "result": "105.8 ± 13.6", "unit": "g/cm^2"},
      {"measurement": "number of genes with expression modified by this treatment but not the other", "setting": "92 genes", "result": 15, "unit": "genes"},
      {"measurement": "reduction of fibrosis in LV", "setting": "Dahl salt-sensitive rats [2]; as compared with HS-control, 17-week-old rats, Masson's trichrome", "result": "~50", "unit": "%"}
    ]},
    {"compound": "CC[C@H](C)[C@H](NC(=O)[C@@H]1CCCN1C(=O)[C@H](C)NC(=O)[C@H](CC(=O)O)NC(=O)[C@H](Cc1c[nH]cn1)NC(=O)[C@@H](N)CSSC[C@H](N)C(=O)N[C@@H](Cc1ccc(O)cc1)C(=O)NCC(=O)N[C@@H](CCCNC(=N)N)C(=O)N[C@@H](CCCCN)C(=O)N[C@@H](CCCCN)C(=O)N[C@@H](CCCNC(=N)N)C(=O)N[C@@H](CCCNC(=N)N)C(=O)N[C@@H](CCC(N)=O)C(=O)N[C@@H](CCCNC(=N)N)C(=O)N[C@@H](CCCNC(=N)N)C(=O)N[C@@H](CCCNC(=N)N)C(=O)O)C(=O)NCC(=O)N[C@@H](Cc1ccc(O)cc1)C(=O)N[C@@H](CC(=O)O)C(=O)O", "note": "[ΨεR]", "values": [
      {"measurement": "arterial stenosis", "setting": "Dahl salt-sensitive rats [2]; hypertensive rats, chronic treatment", "result": "induced arterial stenosis"},
      {"measurement": "arterial stenosis", "setting": "Dahl salt-sensitive rats [2]; normotensive Dahl salt-sensitive rats on a low-salt diet", "result": "did not cause arterial stenosis"}
    ]},
    {"compound": "βIIV5-3: βIIV5-3 peptide inhibitor QEVIRN (SEQ ID NO: 3), from the V5 domain of βIIPKC (Synthetic peptide inhibitor)", "values": [
      {"measurement": "left ventricular weight to body weight ratio (LVW/BW)", "setting": "Dahl salt-sensitive rats [1]; 17-weeks old rats", "result": "reduced"},
      {"measurement": "fractional shortening", "setting": "Dahl salt-sensitive rats [1]; at 17 weeks, vs TAT control, in words", "result": "significantly reduced fractional shortening"},
      {"measurement": "wall stress", "setting": "Dahl salt-sensitive rats [1]; hypertensive rats, in words", "result": "reduces wall stress"},
      {"measurement": "survival", "setting": "Dahl salt-sensitive rats [1]", "result": "prolonged survival significantly longer than treatment with the βIV5-3 peptide inhibitor"},
      {"measurement": "systolic blood pressure", "setting": "Dahl salt-sensitive rats [3]", "result": "less than in the TAT or βIV5-3 peptide-treated animals"}
    ]},
    {"compound": "βIV5-3: βIV5-3 PKC peptide inhibitor KLFIMN (SEQ ID NO: 2), from the V5 domain of βIPKC (Synthetic PKC peptide inhibitor)", "values": [
      {"measurement": "survival", "setting": "Dahl salt-sensitive rats [1]", "result": "prolonged survival"}
    ]}
  ]
}
